The results in this text go back to patent publication US20190388377A1, “COMPOSITIONS AND METHODS FOR THE TREATMENT OF LIVER DISEASES AND DISORDERS” (AXCELLA HEALTH INC., priority 2018, published 2019).

One assay relates to Albumin. Kind of assay: Albumin secretion after 72 h by ELISA, PHH model, Example 2. The format is cell-based, human. The settings on record: FFA+TNFα. The method, then:
(§1) PHH from two healthy human donors (Lonza, TRL) were seeded on day 0 at density of 6e04 cells in 96 well optical microplates (Thermofisher) in hepatocyte plating media (William's E medium, WEM) (Gibco) supplemented with 10% heat-inactivated FBS (Atlanta Bio), 2 mM Glutamax (Gibco), and 0.2% Primocin (InVivoGen) and incubated for 6 hours at 37° C., 5% CO2. After 6 hours, cells were washed twice and incubated overnight at 37° C., 5% CO2 with Hepatocytes defined medium (Corning) supplemented with 2 mM Glutamax (Gibco), and 1× Penicillin/Streptomycin. On day 1, cells were washed twice and incubated for 24 h in the hepatocyte culture media in the same conditions described above.
(§2) On day 2, cells were washed twice with DPBS 1× (Gibco) to remove excess amino acids and maintained in pretreatment media (1×HMDB, a defined custom amino acid concentration based on the mean physiological concentrations in blood, in WEM±supplemental amino acids): • a. Amino acid-free WEM (US Biologicals) supplemented with 11 mM Glucose (Sigma), 0.272 mM Sodium Pyruvate (Sigma), 1× P/S (Gibco) and containing 1×HMDB with no supplemental amino acids; or • b. The same media described above 1×HMDB WEM with supplemental amino acid and amino acid combination treatments at various concentrations. Cells were maintained in the defined media (a. & b.) for 24 hours at 37° C., 5% CO2. The HMDB values are published in the Human Metabolome Database (Wishart D S, Tzur D, Knox C, et al., HMDB: the Human Metabolome Database. Nucleic Acids Res. 2007 January; 35 (Database issue):D521-6. 17202168; which is hereby incorporated by reference in its entirety). Co-Treatment with Free Fatty Acids and Amino Acids Combination
(§3) After 24 h pre-treatment, cells maintained in the pretreatment media±supplemental amino acids (section (a. & b.) described above) were exposed to free fatty acids (FFA) at 250 uM with a ratio of 2:1 (Oleate:Palmitate) supplemented with TNF-α (Thermofisher) at 1 ng/ml. Cells were incubated with the FFAs mixture (FFAs+TNF-α)±supplemental amino acids treatments for 24 hours at 37° C., 5% CO2. After 24 hours incubation, media was removed for cytokine analysis and replaced by fresh media containing the same conditions described above (FFAs mixture±supplemental amino acids treatments). Cells were incubated for an additional 48 hours for a total of 72 hours of FFA and TNF-α stimulation. After 72 hours of incubation, media was removed for albumin and urea analysis and the cells were fixed for nuclei and lipid staining.
Albumin secretion was measured as a functionality test in primary human hepatocytes. Albumin was measured by ELISA (Human Albumin ELISA Quantitation set, Bethyl Laboratories) at 1/200 dilution in the sample diluent (Bethyl Laboratories). Data is reported as median fold change from control, statistical analysis was done using t-Test.

Assay [1] concerns alpha smooth muscle actin (αSMA). Kind of assay: HSC activation by alpha SMA immunostaining, TGFβ1-stimulated hepatic stellate cells. The format is cell-based, human. On the procedure:
Primary human hepatic stellate cells were obtained from Samsara Sciences. Cells from three different donors were grown in Complete HSC Medium to ˜80% confluence in T75 or T150 flasks below passage 10 were seeded into sterile, collagen I coated, 96-well optical plastic microplates (ThermoScientific) and incubated overnight at 37° C., 5% CO2 in a humidified incubator in DMEM with 2% Fetal Bovine Serum and 1% Antimycotic. […] After 24 hours of stimulus, supernatant was removed and used to measure Procollagen III and cells were then washed and fixed with 4% paraformaldehyde for further staining.
Procollagen III, an important biomarker of fibrosis was measured by ELISA (Human PCIII Elisa Kit, G-Biosciences) following the manufacturer's recommendations. Fixed cells with 4% paraformaldehyde were permeabilized with 0.1% Triton X-100 then immunostained for alpha SMA and labeled for EdU incorporation.
Cells were imaged using ImageXpress micro confocal high content imager (Molecular Devices). […] Image analysis was performed using MetaXpress version 6.2.3.733 (Molecular Devices).
Fixed cells immunostained for alpha smooth muscle actin (αSMA) were analyzed and stained area was normalized to total nuclei count. Fold change were calculated relative to the baseline amino acid (1×HMDB) condition stimulated with 3 ng/mL TGFβ1.

The subject of assay [2] is primary human hepatocytes. As to the kind of experiment: Intracellular triglyceride level after 72 h, colorimetric assay, Example 3. The format is cell-based. On the procedure:
On day 2, cells were washed twice with DPBS 1× (Gibco) and maintained in: • a. Amino acid-free WEM (US Biologicals) supplemented with 11 mM Glucose (Sigma), 0.272 mM Sodium Pyruvate (Sigma), 1× P/S (Gibco) and containing a defined custom amino acid concentration based on the mean physiological concentrations in blood (1× HMDB WEM (−) supplemental amino acids); or • b. The same media described above 1×HMDB WEM (+) supplemental amino acids treatment dose at a 30× of HMDB amino acid concentration. Cells were maintained in the defined amino acids media (a. & b.) for 24 hours at 37° C., 5% CO2. Co-Treatment with Free Fatty Acids and Various Amino Acids Supplemental Treatments
After 24 h pre-treatment, cells maintained in the same media (a. & b.) described above 1×HMDB±supplemental amino acids were now exposed to free fatty acids (FFA) at 250 uM with a ratio of 2:1 (Oleate:Palmitate) supplemented with TNF-α (Thermofisher) at 1 ng/ml or vehicle. Cells with the FFAs+TNFα mixture±amino acids treatments were incubated for 72 hours at 37° C., 5% CO2 with a media change after the first 24 hours.
After 72 hours, cells were washed once with cold PBS 1× (Gibco), scrapped off and collected into 75 ul of standard diluent (Cayman). Collected cells were vortexed for 1 min at a 2500 rpm speed followed by two times sonication (Elmasonic sonicator) for 1 min each. Supernatants were collected for triglyceride analysis after centrifugation at 1000 rpm for 10 min at 4° C. Intracellular triglyceride level was assessed using triglyceride colorimetric assay kit (Cayman) and following manufacturer's recommendations. Data was normalized to the total amount of protein using Bicinchoninic Acid Protein Assay Kit (Sigma). Data is reported as median fold change from FFAs+TNFα condition, statistical analysis was done using t-Test.

Assay [3] relates to primary human hepatocytes. Kind of assay: Intracellular lipid accumulation after 72 h by fluorescence microscopy, PHH model for NASH, Example 2. The format is cell-based. The note with it: FFA+TNFα; for Lipid Median (median fold change from control): 72 h. The method, then:
as §1, §2, §3
After 72 hours, cells were washed twice in 100 ul PBS 1× (Gibco), fixed with 4% Paraformaldehyde, and washed twice with PBS 1× (100 ul). After fixation, lipids were stained with HCS LipidTOX Red Neutral (Thermofisher Scientific) diluted 1000× and nuclei were stained with Hoechst 3342 (Life Technologies) diluted to 4 ug/ml. The LipidTOX™ neutral lipid stain has an extremely high affinity for neutral lipid droplets that was detected by fluorescence microscopy using a high content imager (Molecular Devices). Data was normalized to the cell concentration determined by nuclei count. Images were analyzed and total lipid area was calculated using granularity module in MetaXpress 6 software. Data is reported as median fold change from control, statistical analysis was done using t-Test.

For the compound `CC(=O)N[C@@H](CS)C(=O)O` [Nac, N-acetylcysteine], the entries for the “albumin secretion (in words)” value in the assay on Albumin (hepatocyte donor 1) and in the assay with Albumin (hepatocyte donor 2) were “slightly decreased albumin secretion” and “induce albumin secretion”, respectively. The “alpha SMA stained area (in words)” value in assay [1] was “reduced the alpha SMA stained area at a high level”. Further, the “Triglyceride Level relative to the baseline FFA + TNF, Median” value in assay [2] (FFA + TNF, 72 h, two donors, AA Conc 1X, Nac/Car 7.5 mM) is on record as −1.172. Besides, in assay [2] (FFAs+TNFα, two healthy donors), the “triglyceride level (in words)” value is on record as “reduces triglyceride level but the effect was less pronounced than the combinations described previously”. Also, the “Lipid Median (median fold change from control)” value in assay [3] (donor 1, 5 mM) is given as −0.013; in assay [3] (donor 2, 7.5 mM), −0.359. The figures for the “lipid accumulation (in words)” value in assay [3] (hepatocyte donor 1) and in assay [3] (hepatocyte donor 2) were “did not reduce lipid accumulation” and “reduced lipid accumulation but less than the previously described combinations”, respectively.
